Assay results from PubChem BioAssay (NCI).
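The concentration for 50% growth inhibition is given as GI50. TGI: total growth inhibition.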

Legend:
Experiment in all cases: growth of human tumour cells (NCI), 384-well format
OVCAR-3 ovarian = system: OVCAR-3 ovarian
BT-549 breast = system: BT-549 breast
K-562 leukemia = system: K-562 leukemia
SF-268 CNS = system: SF-268 CNS
KM12 colon = system: KM12 colon
OVCAR-4 ovarian = system: OVCAR-4 ovarian
HL-60(TB) leukemia = system: HL-60(TB) leukemia
MDA-MB-468 breast = system: MDA-MB-468 breast
MCF7 breast = system: MCF7 breast
HCC-2998 colon = system: HCC-2998 colon
SW-620 colon = system: SW-620 colon
UACC-257 melanoma = system: UACC-257 melanoma
SK-OV-3 ovarian = system: SK-OV-3 ovarian
HCT-15 colon = system: HCT-15 colon
HCT-116 colon = system: HCT-116 colon
PC-3 prostate = system: PC-3 prostate
OVCAR-5 ovarian = system: OVCAR-5 ovarian
OVCAR-8 ovarian = system: OVCAR-8 ovarian
UO-31 renal = system: UO-31 renal
NCI-H522 lung = system: NCI-H522 lung
MDA-MB-231 breast = system: MDA-MB-231 breast
SK-MEL-28 melanoma = system: SK-MEL-28 melanoma
SN12C renal = system: SN12C renal
HOP-92 NSCLC = system: HOP-92 NSCLC
ACHN renal = system: ACHN renal
MALME-3M melanoma = system: MALME-3M melanoma
TK-10 renal = system: TK-10 renal
SK-MEL-5 melanoma = system: SK-MEL-5 melanoma
LOX IMVI melanoma = system: LOX IMVI melanoma
A549 NSCLC = system: A549 NSCLC
NCI-H460 NSCLC = system: NCI-H460 NSCLC
UACC-62 melanoma = system: UACC-62 melanoma
A498 renal = system: A498 renal
SR leukemia = system: SR leukemia
RPMI-8226 leukemia = system: RPMI-8226 leukemia
DU-145 prostate = system: DU-145 prostate
M14 melanoma = system: M14 melanoma
786-0 renal = system: 786-0 renal
HT29 colon = system: HT29 colon
IGROV1 ovarian = system: IGROV1 ovarian
CCRF-CEM leukemia = system: CCRF-CEM leukemia
SF-539 CNS = system: SF-539 CNS
NCI-H322M lung = system: NCI-H322M lung
MDA-MB-435 melanoma = system: MDA-MB-435 melanoma
NCI-H23 lung = system: NCI-H23 lung
HOP-62 NSCLC = system: HOP-62 NSCLC
NCI-H226 lung = system: NCI-H226 lung
SNB-19 CNS = system: SNB-19 CNS
COLO 205 colon = system: COLO 205 colon
RXF 393 renal = system: RXF 393 renal
MOLT-4 leukemia = system: MOLT-4 leukemia
SK-MEL-2 melanoma = system: SK-MEL-2 melanoma
CAKI-1 renal = system: CAKI-1 renal
U251 glioblastoma = system: U251 glioblastoma
NCI/ADR-RES ovarian = system: NCI/ADR-RES ovarian
SF-295 CNS = system: SF-295 CNS
T-47D breast = system: T-47D breast

Compound: Cc1cc(NC(=O)c2ccc(NS(=O)(=O)CCO)cc2N2CCC3(CC2)CC3)nc(N2CCC(F)(F)CC2)n1
- TGI (OVCAR-3 ovarian): 23.5 nM
- GI50 (BT-549 breast): 24.6 nM
- TGI (BT-549 breast): 1260 nM
- GI50 (K-562 leukemia): 1570 nM
- TGI (K-562 leukemia): 3040 nM
- GI50 (SF-268 CNS): 1420 nM
- TGI (SF-268 CNS): 3310 nM
- GI50 (KM12 colon): 694 nM
- TGI (KM12 colon): 2180 nM
- GI50 (OVCAR-4 ovarian): 258 nM
- TGI (OVCAR-4 ovarian): 1300 nM
- GI50 (HL-60(TB) leukemia): 2200 nM
- TGI (HL-60(TB) leukemia): 3670 nM
- GI50 (MDA-MB-468 breast): 35.2 nM
- TGI (MDA-MB-468 breast): 648 nM
- GI50 (MCF7 breast): 2090 nM
- TGI (MCF7 breast): 4910 nM
- GI50 (HCC-2998 colon): 72.5 nM
- TGI (HCC-2998 colon): 402 nM
- GI50 (SW-620 colon): 1650 nM
- TGI (SW-620 colon): 3140 nM
- GI50 (UACC-257 melanoma): 390 nM
- TGI (UACC-257 melanoma): 1960 nM
- GI50 (SK-OV-3 ovarian): 89.5 nM
- TGI (SK-OV-3 ovarian): 5810 nM
- GI50 (HCT-15 colon): 1660 nM
- TGI (HCT-15 colon): 3060 nM
- GI50 (HCT-116 colon): 1440 nM
- TGI (HCT-116 colon): 2850 nM
- GI50 (PC-3 prostate): 1850 nM
- TGI (PC-3 prostate): 3390 nM
- GI50 (OVCAR-5 ovarian): 2010 nM
- TGI (OVCAR-5 ovarian): 4700 nM
- GI50 (OVCAR-8 ovarian): 71.6 nM
- TGI (OVCAR-8 ovarian): 2610 nM
- GI50 (UO-31 renal): 1250 nM
- TGI (UO-31 renal): 2890 nM
- GI50 (NCI-H522 lung): 1860 nM
- TGI (NCI-H522 lung): 4330 nM
- GI50 (MDA-MB-231 breast): 74.3 nM
- TGI (MDA-MB-231 breast): 2480 nM
- GI50 (SK-MEL-28 melanoma): 792 nM
- TGI (SK-MEL-28 melanoma): 5840 nM
- GI50 (SN12C renal): 1850 nM
- TGI (SN12C renal): 3530 nM
- GI50 (HOP-92 NSCLC): 1890 nM
- TGI (HOP-92 NSCLC): 3410 nM
- GI50 (ACHN renal): 2020 nM
- TGI (ACHN renal): 4940 nM
- GI50 (MALME-3M melanoma): 614 nM
- TGI (MALME-3M melanoma): 3420 nM
- GI50 (TK-10 renal): 2160 nM
- TGI (TK-10 renal): 4760 nM
- GI50 (SK-MEL-5 melanoma): 1680 nM
- TGI (SK-MEL-5 melanoma): 3070 nM
- GI50 (LOX IMVI melanoma): 2120 nM
- TGI (LOX IMVI melanoma): 3580 nM
- GI50 (A549 NSCLC): 2530 nM
- TGI (A549 NSCLC): 6670 nM
- GI50 (NCI-H460 NSCLC): 298 nM
- TGI (NCI-H460 NSCLC): 1050 nM
- GI50 (UACC-62 melanoma): 1590 nM
- TGI (UACC-62 melanoma): 3490 nM
- GI50 (A498 renal): 484 nM
- TGI (A498 renal): 2350 nM
- GI50 (SR leukemia): 22.1 nM
- TGI (SR leukemia): 135 nM
- GI50 (RPMI-8226 leukemia): 1590 nM
- TGI (RPMI-8226 leukemia): 2950 nM
- GI50 (DU-145 prostate): 56.3 nM
- TGI (DU-145 prostate): 2700 nM
- GI50 (M14 melanoma): 328 nM
- TGI (M14 melanoma): 1250 nM
- GI50 ([…]-0 renal): 1630 nM
- TGI (786-0 renal): 3070 nM
- GI50 (HT29 colon): 31.7 nM
- TGI (HT29 colon): 152 nM
- GI50 (IGROV1 ovarian): 1940 nM
- TGI (IGROV1 ovarian): 4960 nM
- GI50 (CCRF-CEM leukemia): 1720 nM
- TGI (CCRF-CEM leukemia): 3120 nM
- GI50 (SF-539 CNS): 53.7 nM
- TGI (SF-539 CNS): 391 nM
- GI50 (NCI-H322M lung): 564 nM
- TGI (NCI-H322M lung): 3370 nM
- GI50 (MDA-MB-435 melanoma): 686 nM
- TGI (MDA-MB-435 melanoma): 5300 nM
- GI50 (NCI-H23 lung): 1310 nM
- TGI (NCI-H23 lung): 2670 nM
- GI50 (HOP-62 NSCLC): 1940 nM
- TGI (HOP-62 NSCLC): 3650 nM
- GI50 (NCI-H226 lung): 1570 nM
- TGI (NCI-H226 lung): 3130 nM
- GI50 (SNB-19 CNS): 1440 nM
- TGI (SNB-19 CNS): 3110 nM
- GI50 (COLO 205 colon): 1660 nM
- TGI (COLO 205 colon): 3280 nM
- GI50 (RXF 393 renal): 13.5 nM
- TGI (RXF 393 renal): 66.6 nM
- GI50 (MOLT-4 leukemia): 1760 nM
- TGI (MOLT-4 leukemia): 3180 nM
- GI50 (SK-MEL-2 melanoma): 89.9 nM
- TGI (SK-MEL-2 melanoma): 2910 nM
- GI50 (CAKI-1 renal): 1890 nM
- TGI (CAKI-1 renal): 6280 nM
- GI50 (U251 glioblastoma): 60.8 nM
- TGI (U251 glioblastoma): 479 nM
- GI50 (NCI/ADR-RES ovarian): 101 nM
- TGI (NCI/ADR-RES ovarian): 703 nM
- GI50 (SF-295 CNS): 373 nM
- TGI (SF-295 CNS): 1140 nM
- GI50 (T-47D breast): 694 nM
- TGI (T-47D breast): 14100 nM
